Data: patent publication US20240041986A1, “METHODS AND COMPOSITIONS FOR THE TREATMENT AND PREVENTION OF TYPE 1 DIABETES” (Dr. Mary Morris & Associates, LLC, priority 2020, published 2024)

What was measured:
Format in all cases: in vivo, mouse
[1] = test system: NOD mice; assay: Incidence and time to onset of Type 1 diabetes (hyperglycemia, blood glucose above 300 mg/dL) in NOD mice after sublingual treatment; conditions: for Median survival: control 21.00; for Median Survival (i.e., time to Type 1 diabetes onset): sublingual 87 μg Humulin, control 21 weeks
Protocol: Sublingual formulation. A commercial high dose Humulin® insulin solution (Humulin® R U-500) containing 500 units of insulin per mL is mixed with an additional equal volume (1:1 (vol:vol)) 100% glycerin. Each dose contains 10 μL of the Humulin®-glycerin solution, which contains 2.5 units (approximately 87 micrograms) of insulin in a solution having a final concentration of ˜52 vol. % glycerin.
NOD mice. Non-obese diabetic (NOD) mice, as described by Makino (Adv. Immunol. 51:285-322 (1992)), are used in the studies described herein. NOD mice provide a widely accepted animal model for the spontaneous development of Type 1 diabetes. NOD mice develop insulitis as a result of leukocyte infiltration into the pancreatic islet, which in turn leads to the destruction of pancreatic islets and a Type 1 diabetic phenotype.
Five-week old female NOD mice were randomly assigned to three groups: (1) control group (1:1 glycerin/phosphate buffered saline (PBS)); (2) insulin-related peptide treatment (Humulin®) started at six weeks of age; or (3) insulin-related peptide treatment (Humulin®) started at ten weeks of age. Mice in the treatment groups (2) and (3) were sublingually administered 2.5 units/87 μg of Humulin® R insulin (10 μL of solution) twice per day […] from age 5 weeks 5 until 8 weeks of age and then once per day, five days per week up to 30 weeks of age. Blood glucose measurements were taken once per week up to 20 weeks of age, and then twice per week thereafter. Mice were classified as diabetic after three consecutive blood glucose readings above 300 mg/dL (hyperglycemic).
Female NOD mice were randomly assigned to two groups: (1) control group (50% glycerin/phosphate buffered saline (PBS)); or (2) insulin-related peptide treatment (Humulin® in 50% glycerin solution; Humulin® sublingual immunotherapy (“Humulin SLIT”)) started at five weeks of age. Mice in the treatment group (2) were sublingually administered 87 μg of Humulin® once per day, five days per week starting at five weeks of age up to 30 weeks of age. Blood glucose measurements were taken once per week up to 13 weeks of age, and then twice per week thereafter. Mice were classified as diabetic after three consecutive blood glucose readings above 300 mg/dL (hyperglycemic). […]

[2] = test system: anti-insulin antibodies; assay: Anti-insulin antibody ELISA of serum from sublingually treated NOD mice
Protocol: Autoantibody titer assay. To detect anti-insulin antibodies 96-well ELISA plates were coated with 1 μg/well of Humulin® overnight at 4° C. and were blocked with 1% BSA in PBS. Sera were divided into two equal aliquots that were incubated with or without 10 μg/ml Humulin® on ice for 1 h. The sera were then added to Humulin® coated plates for incubation overnight at 4° C. After extensive washes, the plates were incubated with HRP-conjugated goat anti-mouse IgG The assay is described in Wan et al., J Exp Med. 2016 May 30; 213(6): 967-978.
Five-week old female NOD mice were randomly assigned to two groups: (1) control group (50% PBS/glycerin); and (2) insulin-related peptide treatment (Humulin® insulin) started at six weeks of age. Mice in the treatment group (2) were sublingually administered 87 μg of Humulin® in 50% glycerin solution twice per day, five days per week, up to 30 weeks of age. Serum samples were collected from control and Humulin® SLIT treated NOD mice at 14 weeks of age and assessed for levels of anti-insulin antibody titer (i.e., after sublingual administration of Humulin® for 8 weeks) and stored at −80 C until tested for anti-insulin antibodies in the ELISA described above. The level of anti-insulin antibodies in the samples was determined by ELISA using the assay described in Wan et al., J Exp Med. 2016 May 30; 213(6): 967-978 and the results are shown in FIG. 2. […]

[3] = test system: C-peptide; assay: Serum C-peptide ELISA (ALPCO) in sublingually treated NOD mice; conditions: NOD mice fasted overnight, Humulin started at 5 weeks of age, serum at 6 and 19 weeks of age (FIG. 5)
Protocol: Serum C-peptide assay. The mouse C-peptide ELISA (ALPCO), which quantifies C-peptide protein products of mouse I and mouse II proinsulin genes, was used. Briefly, mice are fasted overnight and blood is collected by inserting a needle into the submandibular vein and collecting ˜0.2 mL of blood. The blood is centrifuged for 10 minutes at 3000×g in a refrigerated centrifuge, and serum is collected and stored −80° C. The ALPCO C-peptide ELISA is a commercially available FDA Registered For In Vitro Diagnostic Use tool for the quantification of […] C-peptide in serum and plasma samples.
Female NOD mice were randomly assigned to two groups according to Example 3. C-peptide levels in serum were determined by ALPCO C-peptide ELISA from serum samples collected at 6 and 19 weeks of age in mice that were fasted overnight.

[4] = Humulin started at 5 weeks of age (FIG. 3)
[5] = Humulin started at 5 weeks of age vs control (FIG. 3)
[6] = Humulin started at 6 weeks of age (FIG. 1A)
[7] = Humulin started at 6 weeks of age vs control (FIG. 1A)
[8] = Humulin started at 10 weeks of age (FIG. 1B)
[9] = Humulin started at 10 weeks of age vs control (FIG. 1B)
[10] = combined FIG. 1A and FIG. 3 (FIG. 6)
[11] = combined FIG. 1A and FIG. 3 vs control (FIG. 6)

For “Humulin: commercial recombinant human insulin solution (Humulin® R U-500) mixed 1:1 with glycerin, sublingual formulation, 87 μg per 10 μL dose”, the “Ratio of median survival (Control / Humulin)” value (from here on “Ratio … (Control / Humulin)”) [1, 4] was 0.7119, the “Reciprocal of ratio of median survival” value [1, 4] was 1.405 and the “Are the survival curves sig different? Gehan-Breslow-Wilcoxon test” value [1, 5] was “Yes”. The “Are the survival curves sig different? Log-rank (Mantel-Cox) test” value [1, 5] was “Yes”, the “Ratio … (Control / Humulin)” value [1, 6] was 0.778 and the “Reciprocal of ratio of median survival” value [1, 6] was 1.29. For the same substance, the “Are the survival curves significantly different? Gehan-Breslow-Wilcoxon test” value [1, 7] was “Yes”, the “Are the survival curves significantly different? Log-rank (Mantel-Cox) test” value [1, 7] was “Yes” and the “Ratio … (Control / Humulin)” value [1, 8] was 0.8750. For the same substance, the “Reciprocal of ratio of median survival” value [1, 8] was 1.14, the “Are the survival curves significantly different? Gehan-Breslow-Wilcoxon test” value [1, 9] was “No” and the “Are the survival curves significantly different? Log-rank (Mantel-Cox) test” value [1, 9] was “No”. For the same substance, the “incidence (% diabetic) and onset time (weeks) of Type 1 diabetes as compared to the control group” value ([1]; NOD mice, sublingual Humulin started at five weeks of age (FIG. 3)) was “reduced”, the “incidence (% T1D Onset) and onset time (weeks) of Type 1 diabetes as compared to the control group” value ([1]; NOD mice, sublingual Humulin started at six weeks of age (FIG. 1A)) was “significantly reduced” and the “Ratio … (Control / Humulin)” value [1, 10] was 0.8077. For the same substance, the “Reciprocal of ratio of median survival” value [1, 10] was 1.238, the “Are the survival curves sig different? Gehan-Breslow-Wilcoxon test” value [1, 11] was “Yes” and the “Are the survival curves sig different? Log-rank (Mantel-Cox) test” value [1, 11] was “Yes”. For the same substance, the Median survival ([1]; combined results of FIG. 1A and FIG. 3, Humulin started at 5 or 6 weeks of age (FIG. 6, time in Weeks)) was 26.00, the Median survival ([1]; female NOD mice, sublingual 87 μg Humulin once per day, five days per week, started at 5 weeks of age (FIG. 3, time in Weeks)) was 29.50 and the “Median Survival (i.e., time to Type 1 diabetes onset)” value ([1]; female NOD mice, started at 6 weeks of age (FIG. 1A)) was 27 weeks. The “Median Survival (i.e., time to Type 1 diabetes onset)” value ([1]; female NOD mice, started at 10 weeks of age (FIG. 1B)) was 24 weeks, the “development of anti-insulin antibodies as compared to the control group” value ([2]; 87 μg Humulin started at five weeks of age, serum at 19 weeks of age (FIG. 4)) was “significantly reduced” and the “development of anti-insulin antibodies as compared to the control group” value ([2]; 87 μg Humulin started at six weeks of age, serum at 14 weeks of age (FIG. 2)) was “significantly reduced”. For the same substance, the “serum C-peptide levels as compared to untreated control NOD mice” value [3] was “either a maintenance or enhancement”.
